Values quoted from earlier work, collected in patent US7838691B2, “Palmerolides: methods of preparation and derivatives thereof” (Board of Regents, of the University of Texas System, priority 2007, dated 2010).

Columns and labels:
bovine brain V-ATPase = settings: in vitro
[1] = test system: several cancer cell lines including melanoma, colon cancer, and renal cancer

In the case of `CC(C)=CC(=O)N/C=C/C(C)=C/[C@@H](C)[C@H]1C/C(C)=C/C=C/CC[C@H](OC(N)=O)[C@@H](O)/C=C/[C@@H](O)CCC/C=C/C(=O)O1` [Palmerolide A], the IC50 (bovine brain V-ATPase) is given as about 2 nM and the cytotoxicity [1] is given as “selective cytotoxin”.
